Experiment [1] concerns the target T1, rat adrenergic α1B receptor (Rattus norvegicus, UniProt P15823).
T1 construct: rat adrenergic α1B receptor obtained from Wistar Rat liver; from tissue; host or cells: Wistar rat liver
T1 sequence (P15823 1-515): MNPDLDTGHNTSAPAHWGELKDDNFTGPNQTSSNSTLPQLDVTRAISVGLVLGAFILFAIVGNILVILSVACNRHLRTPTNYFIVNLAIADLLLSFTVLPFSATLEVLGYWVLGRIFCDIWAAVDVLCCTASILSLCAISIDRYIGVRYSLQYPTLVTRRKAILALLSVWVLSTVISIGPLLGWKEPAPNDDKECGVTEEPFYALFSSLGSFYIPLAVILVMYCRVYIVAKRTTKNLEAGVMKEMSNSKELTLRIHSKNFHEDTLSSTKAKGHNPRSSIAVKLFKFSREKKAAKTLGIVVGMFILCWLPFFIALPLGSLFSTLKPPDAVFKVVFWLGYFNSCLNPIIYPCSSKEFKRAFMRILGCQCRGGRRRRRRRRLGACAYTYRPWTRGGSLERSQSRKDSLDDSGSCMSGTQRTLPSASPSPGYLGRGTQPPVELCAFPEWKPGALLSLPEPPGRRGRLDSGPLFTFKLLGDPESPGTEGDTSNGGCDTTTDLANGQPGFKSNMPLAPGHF
Put plainly: Radioligand binding, adrenergic α1B receptor ([3H]Prazosin). The settings on record: 0.1 μM compound, Wistar rat liver, read-out: Percentage inhibition of ligand binding, Adrenergic α1B. As to the method: To evaluate in radioligand binding assays the activity of compounds, rat adrenergic α1B receptor obtained from Wistar Rat liver (Garcia-S' ainz, J. et al, Biochem. Biophys. Res. Commun. 186:760, 1992; Michel, A. et al, Br. J. Pharmacol. 98:883, 1989) in a modified Tris-HCl buffer (50 mM Tris-HCl buffer, pH 7.4, 0.5 mM EDTA) was used. Compounds were incubated with 0.25 nM [^3H]Prazosin for 60 min at […]. Non-specific binding was estimated in the presence of 10 μM phentolamine. Receptor proteins were filtered and washed, the filters were then counted to determine [^3H]Prazosin specifically bound. Compounds were screened at 1 μM or lower, using 1% DMSO as vehicle. Compounds were tested in this biochemical assay and percent inhibition of specific binding was determined. Biochemical assay results are presented as the percent inhibition of specific binding in Table 2.

The target of experiment [2] is T2, human recombinant adrenergic α1D receptor (Homo sapiens, UniProt P25100).
T2 construct: expressed in transfected cells; host or cells: HEK-293
T2 sequence (P25100 1-572): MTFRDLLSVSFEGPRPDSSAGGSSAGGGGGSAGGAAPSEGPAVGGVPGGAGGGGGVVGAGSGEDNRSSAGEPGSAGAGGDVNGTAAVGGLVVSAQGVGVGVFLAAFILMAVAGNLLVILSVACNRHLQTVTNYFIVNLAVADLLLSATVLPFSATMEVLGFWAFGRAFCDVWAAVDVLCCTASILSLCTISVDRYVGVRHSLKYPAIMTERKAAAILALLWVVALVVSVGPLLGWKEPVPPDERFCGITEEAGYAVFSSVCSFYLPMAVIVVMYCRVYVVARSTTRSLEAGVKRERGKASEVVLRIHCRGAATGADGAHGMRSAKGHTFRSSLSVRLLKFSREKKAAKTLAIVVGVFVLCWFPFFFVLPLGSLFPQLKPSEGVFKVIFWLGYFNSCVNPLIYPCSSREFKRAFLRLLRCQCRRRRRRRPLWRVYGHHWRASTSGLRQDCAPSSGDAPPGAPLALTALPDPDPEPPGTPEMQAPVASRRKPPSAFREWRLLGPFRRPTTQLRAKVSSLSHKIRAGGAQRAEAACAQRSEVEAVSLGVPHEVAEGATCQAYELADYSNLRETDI
The experiment is described as follows: Radioligand binding, adrenergic α1D receptor ([3H]Prazosin). The settings on record: 0.1 μM compound; HEK-293 cells; 0.6 nM [3H]Prazosin; read-out: Percentage inhibition of ligand binding, Adrenergic α1D. As to the method: Compounds were incubated with 0.6 nM [3H]Prazosin for 60 min at 25° C. Non-specific binding was estimated in the presence of 10 μM phentolamine. Receptor proteins were filtered and washed, the filters were then counted to determine [3H]Prazosin specifically bound. Compounds were screened at 1 μM or lower, using 1% DMSO as vehicle. Biochemical assay results are presented as the percent inhibition of specific binding in Table 2.

For experiment [3], the target named is T3, human recombinant adrenergic α2B receptor (Homo sapiens, UniProt P18089).
T3 construct: expressed in transfected cells; host or cells: CHO-K1
T3 sequence (P18089 1-450): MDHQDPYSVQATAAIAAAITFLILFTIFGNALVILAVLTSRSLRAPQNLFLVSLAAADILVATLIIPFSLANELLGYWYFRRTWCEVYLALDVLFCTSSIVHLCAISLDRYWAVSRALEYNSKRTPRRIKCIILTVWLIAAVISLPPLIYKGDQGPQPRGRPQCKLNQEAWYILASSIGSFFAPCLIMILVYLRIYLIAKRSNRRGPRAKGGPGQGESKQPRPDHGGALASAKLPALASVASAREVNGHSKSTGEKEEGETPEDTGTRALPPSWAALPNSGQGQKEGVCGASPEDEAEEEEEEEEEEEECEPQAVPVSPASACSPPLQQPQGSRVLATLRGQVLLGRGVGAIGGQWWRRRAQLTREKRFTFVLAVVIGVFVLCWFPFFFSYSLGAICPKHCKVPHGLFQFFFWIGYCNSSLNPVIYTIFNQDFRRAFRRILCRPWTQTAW
The experiment is described as follows: Radioligand binding, adrenergic α2B receptor ([3H]Rauwolscine). The settings on record: CHO-K1 cells, read-out: Percentage inhibition of ligand binding, Adrenergic α2B; for inhibition at 0.1 µM: 0.1 μM compound. Here is the method:
To evaluate in radioligand binding assays the activity of compounds, human recombinant adrenergic α2B receptor expressed in Chinese hamster ovary (CHO) K1 cells (Uhlen, S. et al, Eur. J. Pharmacol. 343(1):93, 1998) in a modified Tris-HCl buffer (50 mM Tris-HCl, pH 7.4, 12.5 mM MgCl2, 1 mM EDTA, 0.2% BSA) was used. Compounds were incubated with 2.5 nM [^3H]Rauwolscine for 60 min at 25° C. Non-specific binding was estimated in the presence of 10 μM Prazosin. Receptor proteins were filtered and washed, the filters were then counted to determine [^3H]Rauwolscine specifically bound. Compounds were screened at 1 μM or lower, using 1% DMSO as vehicle. Compounds were tested in this biochemical assay and percent inhibition of specific binding was determined. Biochemical assay results are presented as the percent inhibition of specific binding in Table 2.

The target of experiment [4] is T4, human recombinant adrenergic α2A receptor (Homo sapiens, UniProt P08913).
T4 construct: expressed in transfected cells; host or cells: insect Sf9 cells
T4 sequence (P08913 1-465): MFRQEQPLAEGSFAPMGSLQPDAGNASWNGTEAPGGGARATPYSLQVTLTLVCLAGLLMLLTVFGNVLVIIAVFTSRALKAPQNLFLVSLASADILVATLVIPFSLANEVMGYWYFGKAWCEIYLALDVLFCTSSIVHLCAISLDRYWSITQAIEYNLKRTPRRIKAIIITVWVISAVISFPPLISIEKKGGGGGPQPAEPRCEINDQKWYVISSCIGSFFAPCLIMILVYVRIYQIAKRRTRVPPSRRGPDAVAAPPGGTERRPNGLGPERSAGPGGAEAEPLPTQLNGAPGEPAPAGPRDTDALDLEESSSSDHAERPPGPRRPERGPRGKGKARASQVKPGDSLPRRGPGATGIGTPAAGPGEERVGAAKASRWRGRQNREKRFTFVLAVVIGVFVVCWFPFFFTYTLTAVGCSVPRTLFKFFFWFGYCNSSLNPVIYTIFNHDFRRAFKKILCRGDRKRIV
The experiment is described as follows: Radioligand binding, adrenergic α2A receptor ([3H]MK-912). The conditions noted are these: 0.1 μM compound, Sf9 cells, 1 nM [3H]MK-912; for inhibition at 0.1 µM: read-out: Percentage inhibition of ligand binding, Adrenergic α2A. As to the method: To evaluate in radioligand binding assays the activity of compounds, human recombinant adrenergic α2A receptor expressed in insect Sf9 cells (Uhlen, S. et al, J. Pharmacol. Exp. Ther. 271:1558, 1994) in a modified Tris-HCl buffer (50 mM Tris-HCl, pH 7.4, 12.5 mM MgCl2, 2 mM EDTA) was used. Compounds were incubated with 1 nM [^3H]MK-912 for 60 min at 25° C. MK912 is (2S-trans)-1,3,4,5′,6,6′,7,12b-octahydro-1′,3′-dimethyl-spiro[2H-benzofuro[2,3-a]quinolizine-2,4′(1′H)-pyrimidin]-2′(3′H)-one hydrochloride Non-specific binding was estimated in the presence of 10 μM WB-4101 (2-(2,6-Dimethoxyphenoxyethyl)aminoethyl-1,4-benzodioxane hydrochloride). Receptor proteins were filtered and washed, the filters were then counted to determine [^3H]MK-912 specifically bound. Compounds were screened at 1 μM or lower, using 1% DMSO as vehicle. Compounds were tested in this biochemical assay and percent inhibition of specific binding was determined. Biochemical assay results are presented as the percent inhibition of specific binding in Table 2.

Turning to `Cc1ccc2c(c1)c1c(n2-c2ccc3nc(C)ccc3c2)CCN(C)C1` [Compound No. 157, 2,8-dimethyl-5-(2-methyl-quinolin-6-yl)-2,3,4,5-tetrahydro-1H-pyrido[4,3-b]indole], the inhibition – broadly, the change of the read-out against control, counted positive when it falls – at 0.1 µM in experiment [1] came to 22%; in experiment [2] it was 13%; in experiment [3], 60%; in experiment [4], 8%.

As for `Cc1ccc2c(c1)c1c(n2-c2ccccc2-c2cnc(N(C)C)nc2)CCN(C)C1` [Compound 31], the inhibition at 0.1 µM in experiment [1] was 36%; in experiment [2], 80%; in experiment [3], 67%; in experiment [4], 74%.

Regarding `CNC(=O)c1ccc(-c2ccccc2-n2c3c(c4cc(C)ccc42)CN(C)CC3)cn1` [Compound No. 71, 5-(2-(2,8-dimethyl-3,4-dihydro-1H-pyrido[4,3-b]indol-5(2H)-yl)phenyl)-N-methylpicolinamide], the inhibition at 0.1 µM was 66% in experiment [1], 87% in experiment [2], 89% in experiment [3] and 11% in experiment [4].

Take `Cc1ccc2c(c1)c1c(n2-c2cscc2C(=O)N(C)C)CCN(C)C1` [Compound No. 152]: the inhibition at 0.1 µM in experiment [1] amounted to 10%; in experiment [2] it was 16%; in experiment [3], 51%; in experiment [4] it was 9%.

As to `Cc1ccc2c(c1)c1c(n2-c2ccccc2-c2ccc(S(N)(=O)=O)cc2)CCN(C)C1` [Compound No. 163, 2′-(2,8-dimethyl-3,4-dihydro-1H-pyrido[4,3-b]indol-5(2H)-yl)biphenyl-4-sulfonamide], the inhibition at 0.1 µM in experiment [3] amounted to 69%.

Consider `Cc1ccc2c(c1)c1c(n2-c2ccc(-c3ccc(F)cc3)cn2)CCN(C)C1` [Compound No. 140, 5-(5-(4-fluorophenyl)pyridin-2-yl)-2,8-dimethyl-2,3,4,5-tetrahydro-1H-pyrido[4,3-b]indole], for which the inhibition at 0.1 µM was found to be 69% in experiment [1], 56% in experiment [2], 96% in experiment [3] and 70% in experiment [4].

For `Cc1ccc2c(c1)c1c(n2-c2ccccc2-c2ccc(S(C)(=O)=O)cc2)CCN(C)C1` [Compound No. 160, 2,8-dimethyl-5-(4′-(methylsulfonyl)biphenyl-2-yl)-2,3,4,5-tetrahydro-1H-pyrido[4,3-b]indole], the inhibition at 0.1 µM in experiment [3] was determined as 74%.

As for `Cc1ccc2c(c1)c1c(n2-c2ncccc2-c2ccncc2)CCN(C)C1` [Compound No. 161, 5-(3,4′-bipyridin-2-yl)-2,8-dimethyl-2,3,4,5-tetrahydro-1H-pyrido[4,3-b]indole], in experiment [3], the inhibition at 0.1 µM was determined as 26%.

Turning to `Cc1ccc2c(c1)c1c(n2-c2ccccc2-c2cnccc2C)CCN(C)C1` [Compound No. 159, 2,8-dimethyl-5-(2-(4-methylpyridin-3-yl)phenyl)-2,3,4,5-tetrahydro-1H-pyrido[4,3-b]indole], the inhibition at 0.1 µM in experiment [3] is 56%.

For the compound `Cc1ccc2c(c1)c1c(n2-c2ccccc2-c2cn[nH]c2)CCN(C)C1` [Compound No. 104, 5-(2-(1H-pyrazol-4-yl)phenyl)-2,8-dimethyl-2,3,4,5-tetrahydro-1H-pyrido[4,3-b]indole], the inhibition at 0.1 µM in experiment [2] was determined as 22%; in experiment [3], 87%; in experiment [4] it was 10%. In addition, the inhibition at 0.03 µM in experiment [3] (0.03 μM compound) came out at 61%. The “Percentage inhibition of ligand binding, Adrenergic α2A” value in experiment [4] was determined as 19%.

With `Cc1ccc2c(c1)c1c(n2-c2cnc(C)c3ccccc23)CCN(C)C1` [Compound No. 164, 2,8-dimethyl-5-(1-methylisoquinolin-4-yl)-2,3,4,5-tetrahydro-1H-pyrido[4,3-b]indole], in experiment [3], the inhibition at 0.1 µM came to 3%.

Regarding `Cc1ccc2c(c1)c1c(n2-c2cnc3c(c2)CCCC3)CCN(C)C1` [Compound No. 153], in experiment [4], the inhibition at 0.1 µM came out at 1%.

For the origin of these results see patent US20140155384A1, “COMPOUNDS AND METHODS OF TREATING DIABETES” (Medivation Technologies, Inc., priority 2011, published 2014).
